{"source": "paper doi:10.1101/2025.08.29.673196v2", "about": "“Development and characterization of Novel Small Molecule Inhibitors Targeting LAG-3 Protein” (biorxiv, 2025)"}
{"molecular_target": "T1, LAG-3 (biotinylated LAG-3 of HTRF LAG-3/MHCII binding assay) (Homo sapiens, UniProt P18627)", "T1 construct": "gene LAG3; biotinylated LAG-3 reagent of Revvity HTRF LAG-3/MHCII kit", "T1 sequence (P18627 23-450 limits assumed)": "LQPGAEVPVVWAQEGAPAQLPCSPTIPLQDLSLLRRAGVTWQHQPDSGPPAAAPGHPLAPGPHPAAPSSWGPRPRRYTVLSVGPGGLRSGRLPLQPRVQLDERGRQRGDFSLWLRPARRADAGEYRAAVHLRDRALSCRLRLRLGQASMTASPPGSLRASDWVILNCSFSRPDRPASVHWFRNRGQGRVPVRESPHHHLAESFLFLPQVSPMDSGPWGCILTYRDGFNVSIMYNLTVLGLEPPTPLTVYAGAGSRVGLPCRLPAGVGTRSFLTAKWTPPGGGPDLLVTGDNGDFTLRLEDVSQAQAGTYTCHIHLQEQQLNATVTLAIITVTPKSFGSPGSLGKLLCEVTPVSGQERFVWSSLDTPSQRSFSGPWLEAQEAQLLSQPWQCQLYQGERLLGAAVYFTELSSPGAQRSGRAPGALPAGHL", "assay": "HTRF LAG-3/MHCII binding inhibition", "units": {"IC50": "nM"}}
{"smiles": "Cc1cc(=O)oc2cc(NC(=O)c3cc(NC(=O)c4ccccc4)ccc3Oc3ccc(C(=O)O)cc3)ccc12", "note": "[LG-125]", "IC50": 21000}
{"smiles": "Cc1cc(=O)oc2cc(NC(=O)c3cc(NC(=O)c4cccc(C5(C(F)(F)F)CCC5)c4)ccc3Oc3ccc(C(=O)O)cc3)ccc12", "note": "[LG-131]", "IC50": 602}
{"smiles": "COc1ccc(OC)c(NC(=O)C(=O)Nc2ccc(Oc3ccc(C(=O)O)cc3)c(C(=O)Nc3ccc4c(C)cc(=O)oc4c3)c2)c1", "note": "[LG-164]", "IC50": 371}
{"smiles": "Cc1cc(=O)oc2cc(NC(=O)c3cc(NS(=O)(=O)N4CCC(c5ccccc5)CC4)ccc3Oc3ccc(C(=O)O)cc3)ccc12", "note": "[LG-193]", "IC50": 467}
